This is an account of results in patent US9663516B2, “Bicyclic-pyrimidinedione compounds” (MyoKardia, Inc., priority 2014, dated 2017).

Structures are written as SMILES.

Sequence of bovine cardiac myosin (Q9BE39 whole entry): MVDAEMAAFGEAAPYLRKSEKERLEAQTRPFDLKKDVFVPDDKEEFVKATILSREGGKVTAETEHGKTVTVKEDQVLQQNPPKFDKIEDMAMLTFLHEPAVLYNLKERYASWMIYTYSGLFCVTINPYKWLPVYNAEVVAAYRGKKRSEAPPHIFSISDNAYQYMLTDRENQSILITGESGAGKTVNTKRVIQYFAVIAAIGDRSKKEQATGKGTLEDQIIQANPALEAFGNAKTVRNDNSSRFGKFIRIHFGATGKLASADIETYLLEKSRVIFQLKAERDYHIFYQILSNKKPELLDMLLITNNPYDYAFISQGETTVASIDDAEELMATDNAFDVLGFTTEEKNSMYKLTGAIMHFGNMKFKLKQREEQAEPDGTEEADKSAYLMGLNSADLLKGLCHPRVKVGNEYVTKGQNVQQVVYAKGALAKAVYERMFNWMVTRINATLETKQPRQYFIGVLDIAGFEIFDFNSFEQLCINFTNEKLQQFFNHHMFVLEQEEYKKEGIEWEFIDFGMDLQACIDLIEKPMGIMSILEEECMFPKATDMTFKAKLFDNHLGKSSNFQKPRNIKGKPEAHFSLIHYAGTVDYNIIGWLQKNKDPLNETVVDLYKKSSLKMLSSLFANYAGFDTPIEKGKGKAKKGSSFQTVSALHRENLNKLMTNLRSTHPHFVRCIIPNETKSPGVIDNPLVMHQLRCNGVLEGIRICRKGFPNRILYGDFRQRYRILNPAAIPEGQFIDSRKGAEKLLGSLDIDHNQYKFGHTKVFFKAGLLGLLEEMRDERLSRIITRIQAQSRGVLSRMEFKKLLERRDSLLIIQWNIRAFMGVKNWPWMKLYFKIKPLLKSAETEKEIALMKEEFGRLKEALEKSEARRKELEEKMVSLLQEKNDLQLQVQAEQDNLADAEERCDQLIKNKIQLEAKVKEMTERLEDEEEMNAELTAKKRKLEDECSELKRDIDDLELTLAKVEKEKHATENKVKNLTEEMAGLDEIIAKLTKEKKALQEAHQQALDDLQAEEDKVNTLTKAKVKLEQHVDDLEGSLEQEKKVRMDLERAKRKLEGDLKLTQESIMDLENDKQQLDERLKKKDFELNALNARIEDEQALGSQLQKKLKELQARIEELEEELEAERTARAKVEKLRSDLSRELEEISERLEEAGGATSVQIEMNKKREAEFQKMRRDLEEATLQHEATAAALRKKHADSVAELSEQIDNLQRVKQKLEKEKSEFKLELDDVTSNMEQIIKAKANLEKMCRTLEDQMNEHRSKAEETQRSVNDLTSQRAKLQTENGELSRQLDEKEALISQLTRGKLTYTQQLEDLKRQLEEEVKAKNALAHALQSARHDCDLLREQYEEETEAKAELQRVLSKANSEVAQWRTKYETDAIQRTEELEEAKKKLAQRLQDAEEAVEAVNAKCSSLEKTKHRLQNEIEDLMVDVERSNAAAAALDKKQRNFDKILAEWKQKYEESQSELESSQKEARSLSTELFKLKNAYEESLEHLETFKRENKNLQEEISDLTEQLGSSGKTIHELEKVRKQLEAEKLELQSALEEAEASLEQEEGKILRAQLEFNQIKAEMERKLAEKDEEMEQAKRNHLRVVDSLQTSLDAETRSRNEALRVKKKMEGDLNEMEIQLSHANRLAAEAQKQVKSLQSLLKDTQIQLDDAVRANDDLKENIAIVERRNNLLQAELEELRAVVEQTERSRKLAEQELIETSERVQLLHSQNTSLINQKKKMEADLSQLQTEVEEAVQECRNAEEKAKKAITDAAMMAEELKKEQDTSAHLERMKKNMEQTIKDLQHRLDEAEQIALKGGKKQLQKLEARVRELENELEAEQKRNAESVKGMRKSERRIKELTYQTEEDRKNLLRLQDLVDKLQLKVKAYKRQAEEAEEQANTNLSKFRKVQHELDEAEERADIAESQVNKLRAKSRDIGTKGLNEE
Sequence of bovine cardiac myosin (P85100 whole entry partner): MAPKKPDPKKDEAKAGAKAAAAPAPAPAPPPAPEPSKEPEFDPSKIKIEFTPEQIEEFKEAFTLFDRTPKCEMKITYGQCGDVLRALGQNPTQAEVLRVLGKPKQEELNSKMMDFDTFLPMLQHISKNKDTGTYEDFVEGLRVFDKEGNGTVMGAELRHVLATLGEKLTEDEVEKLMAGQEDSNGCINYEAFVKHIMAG
Sequence of bovine cardiac myosin (Q3SZE5 whole entry partner): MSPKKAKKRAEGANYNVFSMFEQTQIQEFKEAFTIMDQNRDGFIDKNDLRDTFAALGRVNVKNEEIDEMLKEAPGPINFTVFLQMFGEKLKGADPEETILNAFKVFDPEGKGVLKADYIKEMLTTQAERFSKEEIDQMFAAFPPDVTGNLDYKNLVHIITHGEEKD

For this experiment, the target named is bovine cardiac myosin (Bos taurus, UniProt Q9BE39). The experiment can be described thus: Myosin inhibition assay (PK/LDH-coupled ATPase, bovine cardiac myofibrils). To be noted: calcium concentration giving 50% activation, pH 6.8, read-out: bcMF pCa_6 IC50. Type of experiment: biochemical. As for the experimental part:
Small molecule agents were assessed for their ability to inhibit the enzymatic activity of bovine cardiac myosin using a biochemical assay that couples the release of ADP (adenosine diphosphate) from cardiac myosin to an enzymatic coupling system consisting of pyruvate kinase and lactate dehydrogenase (PK/LDH) and monitoring the absorbance decrease of NADH (at 340 nm) as a function of time. PK converts ADP to ATP (adenosine triphosphate) by converting PEP (phosphoenolpyruvate) to pyruvate. Pyruvate is then converted to lactate by LDH by converting NADH (nicotinamide adenine dinucleotide) to NAD (oxidized nicotinamide adenine dinucleotide). […] Prior to testing small molecule agents, the bovine myofibrils were assessed for their calcium responsiveness and the calcium concentration that achieves a 50% activation of the myofibril system was chosen as the final condition for assessing the inhibitory activity of the small molecule agents. All enzymatic activity was measured in a buffered solution containing 12 mM PIPES (piperazine-N,N′-bis(2-ethanesulfonic acid), 2 mM magnesium chloride at pH 6.8 (PM12 buffer). Final assay conditions were 1 mg/mL of bovine cardiac myofibrils, 0.4 mM PK/LDH, 50 uM ATP, 0.1 mg/mL BSA (bovine serum albumin), 10 ppm antifoam, 2 mM BME, 0.5 mM NADH, 1.5 mM PEP at the desired free calcium concentration required to achieve 50% activation of the myofibrils.
A dilution series of compound was created in DMSO such that the final desired concentration of compound would be achieved in a volume of 30 μL with a fixed DMSO concentration of 3.3% (v/v). Typically 1 μL of the dilution series were added to 384 well plate to achieve an 10 point dose response. Following the addition of 14 μL of a solution containing bovine cardiac myofibrils, PK/LDH and a solution of calcium (that achieved 50% activation), the enzymatic reaction was started with the addition of 15 μL of a solution containing ATP, PEP and NADH. The reaction progress was followed in a PerkinElmer Envision plate reader at ambient temperature using clear bottom plates. The plate reader was configured to read absorbance at 340 nm in kinetics mode for 15 minutes. Data were recorded as the slope of the absorbance response to time. The slopes of the absorbance response as a function of time were normalized to slopes on the plate containing DMSO. This normalized rate was then plotted as a function of small molecule concentration and the data was fitted to a four-parameter fit using EXCEL XLfit. The IC50 is the concentration at which fifty percent of the total response is inhibited.
In the case of `CC[C@@H](C)n1c(=O)[nH]c2c(c1=O)CC[C@H](C1CCC(F)(F)CC1)N2` [Compound 78], the IC50 – broadly, the concentration that inhibits the measured activity by half – was less than 1 µM.
The figure for `O=c1[nH]c2c(c(=O)n1-c1cc(F)cc(F)c1)C[C@@H](c1ccccc1)N2` [Compound 79] is more than 15 µM; for `CC(C)Cn1c(=O)[nH]c2c(c1=O)CC[C@H](c1ccc(F)c(F)c1)N2` [Compound 80] it is 1 to 15 µM; for `O=c1[nH]c2c(c(=O)n1CC1CC1)CC[C@H](c1ccc(F)c(F)c1)N2` [Compound 82] it is 1 to 15 µM.
In the case of `CCn1c(=O)[nH]c2c(c1=O)CC[C@H](c1ccc(F)c(F)c1)CN2` [Compound 84], the half-maximal inhibitory concentration (IC50) was more than 15 µM.
For `CC(C)n1c(=O)[nH]c2c(c1=O)CC[C@@H](c1ccc(F)c(F)c1)N2` [Compound 85] the value was more than 15 µM.
For `O=c1[nH]c2c(c(=O)n1CC(F)(F)F)CC[C@@H](c1ccccc1)N2` [Compound 86] the value was more than 15 µM; for `CC(C)n1c(=O)[nH]c2c(c1=O)C[C@H](Cc1ccccc1)N2` [Compound 87], more than 15 µM.
For `CC(C)n1c(=O)[nH]c2c(c1=O)C[C@@H](Cc1ccccc1)N2` [Compound 88] the value was more than 15 µM.
Turning to `CC(C)n1c(=O)[nH]c2c(c1=O)CCC(c1ccccc1)N2` (centres unmarked) [Compound 89], the IC50 was in the range of 1 to 15 µM.
Consider `O=c1[nH]c2c(c(=O)n1C1CC1)CC[C@H](c1ccccc1)N2` [Compound 90], for which the IC50 lay within 1 to 15 µM.
The figure for `CC(C)n1c(=O)[nH]c2c(c1=O)C[C@@H](C)[C@H](c1ccccc1)N2` [Compound 91] is more than 15 µM.
For `CC(C)n1c(=O)[nH]c2c(c1=O)C[C@H](C)[C@H](c1ccccc1)N2` [Compound 92] the value was more than 15 µM.
For the molecule `COc1cccc([C@@H]2CCc3c([nH]c(=O)n(C(C)C)c3=O)N2)c1` [Compound 93], the IC50 is more than 15 µM.
For `CCn1c(=O)[nH]c2c(c1=O)CC[C@@H](c1ccc(F)c(F)c1)N2` [Compound 94] the value was 1 to 15 µM.
The figure for `O=c1[nH]c2c(c(=O)n1-c1ccccc1)C(O)C[C@H](c1ccc(F)cc1)N2` (stereo partly drawn) [Compound 95, (7R)-7-(4-Fluorophenyl)-5-hydroxy-3-phenyl-5,6,7,8-tetrahydropyrido[2,3-d]pyrimidine-2,4(1H,3H)-dione] is more than 15 µM.
In the case of `O=c1[nH]c2c(c(=O)n1C1CCC1)CC[C@H](c1ccc(F)c(F)c1)N2` [Compound 96], the IC50 is 1 to 15 µM.
Regarding `CCCn1c(=O)[nH]c2c(c1=O)CC[C@H](c1ccc(F)c(F)c1)N2` [Compound 97], the IC50 lay in the range of 1 to 15 µM.
Consider `CCn1c(=O)[nH]c2c(c1=O)CC[C@@H](c1ccc(F)c(F)c1)CN2` [Compound 98], for which the IC50 was more than 15 µM.
For `CCn1c(=O)[nH]c2c(c1=O)CCC[C@H](c1ccc(F)c(F)c1)N2` [Compound 99] the value was more than 15 µM.
For `CCn1c(=O)[nH]c2c(c1=O)CCC[C@@H](c1ccc(F)c(F)c1)N2` [Compound 100] the value was more than 15 µM; for `[2H]C1([2H])C[C@H](c2ccc(F)c(F)c2)Nc2[nH]c(=O)n(C(C)C)c(=O)c21` [Compound 101, (7R)-7-(3,4-Difluorophenyl)-3-isopropyl-5,6,7,8-tetrahydropyrido[2,3-d]pyrimidine-2,4(1H,3H)-dione-5,5-d2], 1 to 15 µM; for `Cc1cccc([C@H]2CCc3c([nH]c(=O)n(C(C)C)c3=O)N2)c1` [Compound 102], less than 1 µM.
For `Cc1cccc([C@@H]2CCc3c([nH]c(=O)n(C(C)C)c3=O)N2)c1` [Compound 103] the value was more than 15 µM; for `Cc1ccccc1[C@H]1CCc2c([nH]c(=O)n(C(C)C)c2=O)N1` [Compound 104], 1 to 15 µM; for `Cc1ccccc1[C@@H]1CCc2c([nH]c(=O)n(C(C)C)c2=O)N1` [Compound 105], more than 15 µM.
In the case of `CC(C)n1c(=O)[nH]c2c(c1=O)CC[C@@](C)(c1ccccc1)N2` [Compound 107], the IC50 is more than 15 µM.
The figure for `O=c1[nH]c2c(c(=O)n1-c1ccccc1)CC[C@H](c1ccccc1F)N2` [Compound 108] is 1 to 15 µM.
The figure for `O=c1[nH]c2c(c(=O)n1-c1ccccc1)CC[C@@H](c1ccccc1F)N2` [Compound 109] is more than 15 µM; for `COC(=O)N1CCC(n2c(=O)[nH]c3c(c2=O)CC[C@H](c2ccccc2)N3)CC1` [Compound 110] it is 1 to 15 µM.
As to `CC(C)n1c(=O)[nH]c2c(c1=O)CC[C@](C)(c1ccc(F)c(F)c1)N2` [Compound 111], the IC50 is less than 1 µM.
For `CC(C)n1c(=O)[nH]c2c(c1=O)CC[C@@](c1ccccc1)(C(F)F)N2` [Compound 112] the value was less than 1 µM; for `CC1(n2c(=O)[nH]c3c(c2=O)CC[C@@H](c2ccccc2F)N3)CC1` [Compound 113], more than 15 µM.
Consider `CC1(n2c(=O)[nH]c3c(c2=O)CC[C@H](c2ccccc2F)N3)CC1` [Compound 114], for which the IC50 is 1 to 15 µM.
The figure for `CC(C)n1c(=O)[nH]c2c(c1=O)CC[C@](C)(c1cc(F)ccc1F)N2` [Compound 115] is less than 1 µM.
The figure for `CC(C)n1c(=O)[nH]c2c(c1=O)CC(F)(F)[C@@H](c1ccccc1)N2` [Compound 117, (R)-6,6-Difluoro-3-isopropyl-7-phenyl-5,6,7,8-tetrahydropyrido[2,3-d]pyrimidine-2,4(1H,3H)-dione] is more than 15 µM; for `Cn1c(=O)[nH]c2c(c1=O)CC[C@](C)(c1cc(F)ccc1F)N2` [Compound 118] it is 1 to 15 µM.
In the case of `CCn1c(=O)[nH]c2c(c1=O)CC[C@](C)(c1cc(F)ccc1F)N2` [Compound 119], the IC50 is 1 to 15 µM.
The figure for `CC1(n2c(=O)[nH]c3c(c2=O)CC[C@H](c2cc(F)ccc2F)N3)CC1` [Compound 120] is 1 to 15 µM; for `CC1(n2c(=O)[nH]c3c(c2=O)CC[C@H](c2cccc(F)c2)N3)CC1` [Compound 121] it is 1 to 15 µM.
Turning to `Cc1ccccc1[C@H]1CCc2c([nH]c(=O)n(C3(C)CC3)c2=O)N1` [Compound 122], the IC50 lay in the range of 1 to 15 µM.
For `CCn1c(=O)[nH]c2c(c1=O)CC[C@](CC)(c1ccccc1)N2` [Compound 123], the IC50 was in the range of 1 to 15 µM.
The figure for `Cc1cccc([C@H]2CCc3c([nH]c(=O)n(C4(C)CC4)c3=O)N2)c1` [Compound 124] is 1 to 15 µM.
For `COC(=O)N1CCC(n2c(=O)[nH]c3c(c2=O)CC[C@](C)(c2ccc(F)c(F)c2)N3)CC1` [Compound 125] the value was 1 to 15 µM; for `Cn1c(=O)[nH]c2c(c1=O)CC[C@](C)(c1cccc(F)c1)N2` [Compound 126, (R)-7-(3-Fluorophenyl)-3,7-dimethyl-5,6,7,8-tetrahydropyrido[2,3-d]pyrimidine-2,4(1H,3H)-dione], 1 to 15 µM; for `C[C@]1(c2cccc(F)c2)CCc2c([nH]c(=O)n(-c3ccccc3)c2=O)N1` [Compound 127], less than 1 µM.
The figure for `C[C@]1(c2cccc(F)c2)CCc2c([nH]c(=O)n(C3CCOCC3)c2=O)N1` [Compound 128] is less than 1 µM; for `CC(C)n1c(=O)[nH]c2c(c1=O)CC(F)(F)[C@H](c1cccc(Cl)c1)N2` [Compound 129] it is less than 1 µM.
As for `CC(C)n1c(=O)[nH]c2c(c1=O)CC(F)(F)[C@@H](c1cccc(Cl)c1)N2` [Compound 130], the IC50 was more than 15 µM.
Consider `CCn1c(=O)[nH]c2c(c1=O)CC[C@@](c1ccccc1)(C(C)C)N2` [Compound 131], for which the concentration for half-maximal inhibition (IC50) was in the range of 1 to 15 µM.
